ChEMBL document CHEMBL1201862, “PubChem BioAssay data set” (2004)
Activity calls are given as the source filed them. Cut-off read from the data, not from the text of the source, for most assays here: actives have a measured EC50 and inactives only a lower limit.

Tests used:
[1] = biological target: Cytochrome P450 3A4 (Homo sapiens, UniProt P08684);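 note: CYP3A4 tested as one member of a cytochrome P450 panel screen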
[2] = biological target: Cytochrome P450 2D6 (Homo sapiens, UniProt P10635);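 note: CYP2D6 member of a cytochrome P450 panel assay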
[3] = viability of HCT116 lacking mutant beta-catenin – cell-based, human colon tumor, dose response (AID 1045); format: functional;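 note: HCT116 colon tumor cells with beta catenin knocked out; cells exposed to compound for 60 hours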
[4] = viability of PTEN-deleted HCT116 cells – cell-based, HCT116 PTEN knockout, dose response (AID 1047); format: functional;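 note: HCT116 colon tumor cells with PTEN knocked out; cells exposed to compound for 60 hours before readout; potency for loss of cell viability measured by luminescence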
[5] = biological target: Paired box protein Pax-8 (Homo sapiens, UniProt Q06710); test: PAX8 transcriptional activity inhibition in RMG-I – RMG-I cells, luciferase, cherry-pick, dose response (AID 687027); format: functional, cell-based;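 note: luciferase reporter driven by Pax8 target thyroperoxidase promoter measured by SteadyGlo luminescence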
[6] = Luminescence Cell-Based Dose Confirmation HTS to Identify Inhibitors of Platelet Dense Granule Release. [Related pubchem assays: 1663 (Primary HTS), 1678 (Summary of Project)]; format: functional
[7] = biological target: Luciferin 4-monooxygenase (Photinus pyralis, UniProt P08659); test: inhibition of purified Photinus pyralis luciferase – biochemical, luminescence, dose response (AID 1891)
[8] = HIV-1 AD8 envelope cell-cell fusion blockers – cherry-pick, dose response (AID 652062); format: functional, cell-based;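 note: luciferase signal from cell-cell fusion driven by HIV-1 clade B AD8 Env; potency is for inhibitors of fusion seen as a drop in luminescence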
[9] = NIH-3T3 fibroblast cytotoxicity, dose response, cytotoxicity control, cell-based, fluorescence, Alamar Blue, secondary assay (AID 2327); format: functional;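 note: NIH-3T3 mouse fibroblasts cultured with fluconazole at 8 µg/mL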
[10] = fluconazole-exposed Candida albicans growth modulators – fluorescence, retest, confirmation (AID 2467); format: functional, cell-based
[11] = Luminescence Cell-Based Dose Retest to Confirm Inhibitors of Cancer Stem Cells. [Related pubchem assays (depositor defined):AID2717, AID2721]; format: functional; details: Homo sapiens
[12] = biological target: T1, Leucine aminopeptidase (Plasmodium falciparum 3D7, UniProt Q8IL11); test: P. falciparum M17LAP inhibitors, primary screen, biochemical, fluorogenic H-Leu-NHMec substrate, 1536-well (AID 1619); format: functional
T1 sequence (Q8IL11 whole entry): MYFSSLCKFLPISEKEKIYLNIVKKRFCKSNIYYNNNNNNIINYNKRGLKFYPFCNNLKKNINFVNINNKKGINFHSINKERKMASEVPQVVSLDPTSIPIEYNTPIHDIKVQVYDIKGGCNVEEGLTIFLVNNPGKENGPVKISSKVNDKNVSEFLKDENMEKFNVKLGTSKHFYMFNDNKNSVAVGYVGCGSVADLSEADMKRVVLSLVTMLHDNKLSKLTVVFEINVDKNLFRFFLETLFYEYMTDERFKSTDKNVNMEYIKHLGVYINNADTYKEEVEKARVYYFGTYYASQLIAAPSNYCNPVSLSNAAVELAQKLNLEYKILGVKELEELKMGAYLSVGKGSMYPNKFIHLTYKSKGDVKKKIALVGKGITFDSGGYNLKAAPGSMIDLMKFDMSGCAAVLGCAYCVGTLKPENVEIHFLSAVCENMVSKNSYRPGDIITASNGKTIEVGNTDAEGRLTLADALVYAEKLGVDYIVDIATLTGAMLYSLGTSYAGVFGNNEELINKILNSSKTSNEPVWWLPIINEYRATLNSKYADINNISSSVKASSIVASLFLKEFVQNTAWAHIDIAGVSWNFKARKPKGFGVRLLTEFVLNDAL

[13] = tested on: BJ; test: BJ-TERT-LT-ST fibroblast viability loss – cell-based, RAS-independent, luminescence, dose response (AID 1935); format: functional; details: Homo sapiens;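 note: BJ fibroblasts immortalized with TERT plus LT and ST oncogenes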
[14] = tested on: BJ; test: cells; format: functional, cell-based; details: Homo sapiens
[15] = tested on: BJ; test: BJ-TERT fibroblast viability loss – cell-based, RAS-independent, luminescence, dose response (AID 1933); format: functional; details: Homo sapiens
[16] = DRD fibroblast viability loss – cell-based, non-viral oncogenic, luminescence, dose response (AID 1934); format: functional; details: Homo sapiens
[17] = biological target: T2, Streptokinase A (Streptococcus pyogenes serotype M1, UniProt P10520); test: viability-normalized secreted streptokinase activity reduction – plasminogen activation absorbance, OD405, dose response (AID 1914); format: functional, Streptococcus pyogenes M1 GAS;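 note: secreted streptokinase activity via plasminogen activation per viability signal from cell pellet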
T2 sequence (P10520 whole entry): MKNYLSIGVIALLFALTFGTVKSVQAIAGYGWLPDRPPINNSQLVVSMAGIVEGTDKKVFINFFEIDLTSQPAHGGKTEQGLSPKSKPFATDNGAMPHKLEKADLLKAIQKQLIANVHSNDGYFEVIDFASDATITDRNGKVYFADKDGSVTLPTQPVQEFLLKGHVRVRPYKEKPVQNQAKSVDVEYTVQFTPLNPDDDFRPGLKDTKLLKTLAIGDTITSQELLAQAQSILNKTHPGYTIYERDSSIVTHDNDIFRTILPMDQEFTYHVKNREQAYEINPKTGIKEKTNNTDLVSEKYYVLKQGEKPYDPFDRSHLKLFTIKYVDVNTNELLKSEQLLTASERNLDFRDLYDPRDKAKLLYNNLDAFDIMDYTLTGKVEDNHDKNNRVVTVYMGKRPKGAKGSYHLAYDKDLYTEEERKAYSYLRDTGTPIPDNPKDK

[18] = tested on: Streptococcus; test: GAS UMAA2166 growth inhibition – luminescence, BacTiterGlo, counter-screen for streptokinase expression inhibitor project, dose response (AID 1915); format: functional, organism-based;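 note: potency for reduction of bacterial viability or growth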
[19] = tested on: Streptococcus sp. 'group A'; test: Streptococcus pyogenes SK(-)GAS viability under kanamycin – luminescence, BacTiterGlo, confirmation, counter-screen for streptokinase expression inhibitor project, dose response (AID 1900); format: functional, organism-based
[20] = NIH3T3 cell viability loss – ATP luminescence, mouse fibroblasts, counter-screen, dose response (AID 2010); format: functional, cell-based;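 note: cells exposed to compound for about 90 hours before reading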
[21] = Trypanosoma cruzi growth suppression in host cells – NIH3T3 host cells, beta-gal luminescence, confirmation (AID 2044); format: functional, cell-based;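 note: intracellular parasites grown in NIH/3T3 mouse fibroblasts as host cells; luminescent beta-galactosidase reporter signal from transgenic T. cruzi replicating inside host cells; inhibitors lower the luminescence signal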

Chain of Paired box protein Pax-8 (Q06710 whole entry): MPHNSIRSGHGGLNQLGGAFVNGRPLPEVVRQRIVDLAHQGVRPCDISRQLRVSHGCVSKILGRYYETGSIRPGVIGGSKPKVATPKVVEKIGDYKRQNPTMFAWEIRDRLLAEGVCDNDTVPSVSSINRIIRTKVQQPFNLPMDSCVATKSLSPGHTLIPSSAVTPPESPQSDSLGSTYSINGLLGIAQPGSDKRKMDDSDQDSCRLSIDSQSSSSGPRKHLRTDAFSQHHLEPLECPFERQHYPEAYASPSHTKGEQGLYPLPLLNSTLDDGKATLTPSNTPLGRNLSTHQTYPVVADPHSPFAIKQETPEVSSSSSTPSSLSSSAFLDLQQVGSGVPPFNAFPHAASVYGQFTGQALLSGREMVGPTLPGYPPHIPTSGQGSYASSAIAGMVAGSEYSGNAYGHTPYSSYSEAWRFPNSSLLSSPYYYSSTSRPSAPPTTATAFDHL
Chain of Cytochrome P450 3A4 (P08684 whole entry): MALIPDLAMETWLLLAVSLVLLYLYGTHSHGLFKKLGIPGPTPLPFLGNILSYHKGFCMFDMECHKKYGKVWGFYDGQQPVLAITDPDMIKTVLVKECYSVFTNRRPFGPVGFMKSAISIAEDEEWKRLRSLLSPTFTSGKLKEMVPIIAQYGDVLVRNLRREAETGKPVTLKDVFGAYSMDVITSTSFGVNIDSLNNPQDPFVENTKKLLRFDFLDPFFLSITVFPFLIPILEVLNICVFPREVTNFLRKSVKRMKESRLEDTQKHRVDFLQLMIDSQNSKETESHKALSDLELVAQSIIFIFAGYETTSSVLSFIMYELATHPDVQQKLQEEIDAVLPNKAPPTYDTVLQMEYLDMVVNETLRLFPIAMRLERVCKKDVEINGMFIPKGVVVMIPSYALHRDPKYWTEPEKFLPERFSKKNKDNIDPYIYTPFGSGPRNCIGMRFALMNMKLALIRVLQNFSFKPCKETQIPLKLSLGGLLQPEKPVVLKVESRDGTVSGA
Chain of Luciferin 4-monooxygenase (P08659 whole entry, the tested form may be a part): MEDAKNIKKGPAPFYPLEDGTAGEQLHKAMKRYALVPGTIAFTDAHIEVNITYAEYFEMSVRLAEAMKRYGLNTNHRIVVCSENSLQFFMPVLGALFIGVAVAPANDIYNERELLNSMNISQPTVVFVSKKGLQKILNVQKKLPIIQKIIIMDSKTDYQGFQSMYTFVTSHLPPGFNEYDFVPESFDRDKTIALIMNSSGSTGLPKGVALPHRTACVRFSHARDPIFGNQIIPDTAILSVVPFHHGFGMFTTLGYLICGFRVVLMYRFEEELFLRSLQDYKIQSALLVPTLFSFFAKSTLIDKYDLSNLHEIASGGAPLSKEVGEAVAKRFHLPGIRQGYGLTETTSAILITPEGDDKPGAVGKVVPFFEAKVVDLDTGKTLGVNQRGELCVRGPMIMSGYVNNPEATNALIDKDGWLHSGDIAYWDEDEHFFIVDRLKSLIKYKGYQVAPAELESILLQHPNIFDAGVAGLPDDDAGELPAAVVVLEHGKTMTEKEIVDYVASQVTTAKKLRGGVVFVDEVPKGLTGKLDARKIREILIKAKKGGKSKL
Chain of Cytochrome P450 2D6 (P10635 whole entry): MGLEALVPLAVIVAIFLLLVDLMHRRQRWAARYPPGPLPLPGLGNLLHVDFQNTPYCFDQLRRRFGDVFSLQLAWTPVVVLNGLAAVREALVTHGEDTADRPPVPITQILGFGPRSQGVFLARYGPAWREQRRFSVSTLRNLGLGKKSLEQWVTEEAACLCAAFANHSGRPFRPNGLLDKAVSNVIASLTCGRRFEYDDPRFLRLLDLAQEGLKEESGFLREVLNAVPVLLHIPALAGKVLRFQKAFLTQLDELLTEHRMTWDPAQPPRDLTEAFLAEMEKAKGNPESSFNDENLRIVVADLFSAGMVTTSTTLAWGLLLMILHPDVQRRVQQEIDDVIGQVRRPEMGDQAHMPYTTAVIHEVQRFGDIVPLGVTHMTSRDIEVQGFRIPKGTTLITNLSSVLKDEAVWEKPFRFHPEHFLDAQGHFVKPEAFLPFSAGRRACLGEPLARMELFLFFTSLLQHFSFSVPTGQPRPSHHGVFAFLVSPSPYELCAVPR

For `COC(=O)[C@H]1C[C@@H]1[C@H](NC(=O)OCc1ccccc1)c1ccccc1`, the AC50 [1] was 25.1 µM (inconclusive).

In the case of `C[C@H](NC[C@H](O)CP(=O)(O)CC1CCCCC1)c1ccc(Cl)c(Cl)c1`, the AC50 [1] is reported as 31.6 µM (inconclusive).

In the case of `Cc1ccc(C(=O)/C=C/c2c[nH]c3ccccc23)cc1`, the AC50 [2] is reported as 22.4 µM (inconclusive) and the AC50 [1] is reported as 25.1 µM (inconclusive).

For `CO[C@@H]1/C=C\CC(=O)N[C@@H](C)C(=O)OC[C@H](NS(=O)(=O)c2ccc(C)cc2)[C@H](C)/C=C\CC(=O)OC[C@H]1C`, the AC50 [1] was 3.98 µM (inconclusive).

With `COc1ccc(-c2cc(-c3ccccc3)c(C#N)c(S(C)(=O)=O)n2)cc1` the EC50 [3] was 5.07 µM (active), the EC50 [4] was 7.91 µM (active) and the AC50 [5] was 6.98 µM (active).

With `CC(C)c1ccc(C(=O)OC2CCOC2=O)cc1` (stereo not given) the EC50 [6] was > 112 µM (not active) and the EC50 [7] was > 112 µM (not active).

For `OCC1OC(n2cnc3c(NC4CCCC4)ncnc32)C(O)C1O` (stereo not given), the EC50 [6] was 1.09 µM (active) and the EC50 [7] was > 112 µM (not active).

In the case of `Cc1ccc(-n2nnnc2SCn2nnc3ccccc3c2=O)c(C)c1`, the AC50 [8] is reported as 30.1 µM (active).

In the case of `Cn1c(=O)c(C(=O)NCCc2ccccc2)c(O)c2ccccc21`, the EC50 [9] is reported as > 150 µM (inactive) and the EC50 [10] is reported as > 38 µM (not active).

For `CCOc1cc(CNCCO)cc(Br)c1OCc1ccc(Cl)cc1Cl`, the AC50 [11] was 6.75 µM (active), the EC50 [3] was 4.69 µM (active) and the EC50 [4] was 4.89 µM (active).

In the case of `Cc1ccc(S(=O)(=O)Nc2ccc3c(c2)C(=O)N([C@@H](C)CO)C[C@@H](C)[C@H](CN(C)S(=O)(=O)c2ccc(Cl)cc2)OCCCC[C@@H](C)O3)cc1`, the AC50 [5] is reported as 4.47 µM (active).

With `CCC(CC)C(=O)Nc1ccc(C)c(O)c1` the AC50 [1] was 4.47 µM (inconclusive).

For `CC1SCC(=O)N(CC(=O)Nc2ccc3c(c2)OCO3)C1=O` (stereo not given), the IC50 [12] was 29.4 µM (active).

For `CCn1c2ccccc2c2cc(NC(=O)CNCc3ccccc3OC)ccc21`, the EC50 [13] was 41.6 µM (inconclusive), the EC50 [14] was > 150 µM (inconclusive) and the EC50 [15] was 7.54 µM (inconclusive). For the same molecule, the EC50 [16] was 4.21 µM (active).

With `C/C(=N\NC(=O)C1CCCC1)c1ccc(Cl)c(Cl)c1` the EC50 [9] was > 150 µM (inactive) and the EC50 [10] was > 38 µM (not active).

In the case of `COc1ccc(C(O)c2nc3ccccc3n2C)cc1OC` (stereo not given), the AC50 [8] is reported as 3.4 µM (active).

In the case of `C/C(N)=C(/C#N)C(=O)COC(=O)c1cc(-c2ccc(Br)cc2)nc2ccccc12`, the EC50 [3] is reported as 24.9 µM (active), the EC50 [17] is reported as 4.43 µM (active) and the EC50 [4] is reported as 25 µM (active). For the same molecule, the EC50 [18] was 18.7 µM (active) and the EC50 [19] was 11.9 µM (active).

In the case of `O=C(N/N=C/c1ccco1)c1cc(-c2ccncc2)nc2ccccc12`, the EC50 [13] is reported as > 75 µM (not active), the EC50 [14] is reported as 60.7 µM (active) and the EC50 [15] is reported as 15.2 µM (active). The EC50 [16] was 23.3 µM (active).

With `O=C(N/N=C/c1ccsc1)c1cc(-c2cccs2)nc2ccccc12` the AC50 [5] was 51.8 µM (active).

In the case of `O=C(c1ccccc1)c1ccc(NCCCn2ccnc2)c([N+](=O)[O-])c1`, the EC50 [20] is reported as > 60 µM (not active), the EC50 [21] is reported as 1.8 µM (active) and the EC50 [13] is reported as > 150 µM (inconclusive). For the same molecule, the EC50 [14] was > 150 µM (not active), the EC50 [15] was > 150 µM (not active) and the EC50 [16] was 147 µM (active).

For `Cc1cccc(C)c1Nc1nnc(SC(C)C(=O)Nc2c(C)n(C)n(-c3ccccc3)c2=O)s1` (stereo not given), the IC50 [12] was 13.5 µM (active).
